# From patent publication US9822190B2, “Compositions and method for anti-sickling of red blood cells in sickle cell disease” (priority 2015, dated 2017)
# Entries after “also recorded” stand apart in the source; their conditions may differ.
# Columns and labels:
# RBC from SCD subjects = assay: Anti-sickling of RBC from SCD subjects under hypoxia (blood smears); format: cell-based, human; conditions: for anti-sickling (average): 10 ug/ml blood
# Description: (§1) Red Blood Cell (RBC) sickling were studied in blood samples obtained from 12 sickle cell subjects and 6 samples from healthy volunteers matched in terms of age and gender. The blood samples from the subjects were withdrawn and mixed into EDTA tube (10 ml), and then divided into 2 tubes 4-5 ml each (One containing S-NACH 10-100 ug/ml blood added at 10 ul/1 ml blood or PBS buffer solution).
# (§2) Blood samples were incubated for 2-3 hours at room temperature and then blood smears were obtained for monitoring shape of RBCs (take photos for later quantitation number of normal vs. sickle RBCs). Then blood samples were centrifuged to get the plasma, and the plasma were frozen for further testing of various biomarkers.
# [1] = tested on: RBC from healthy subjects; assay: Effect on morphology of RBC from healthy subjects; format: cell-based, human
# Description: as §1, §2
# [2] = Plasma tinzaparin level after oral administration to mice (colorimetric assay); format: in vivo; conditions: oral gavage, 1.6 mg/kg
# Description: Nanoformulated LMWH as shown in Examples 1-5 were administered orally to mice versus standard LMWH at the same dose. Blood samples were withdrawn at different time and plasma levels of LMWH were measured using colorimetric assay.
# FIG. 11 is a graph of plasma tinzaparin level versus time profiles in mice with formulations administered by oral gavage into the mice at dose of 1.6 mg/kg, in accordance with embodiments of the present invention. Graphs for Tinzaparin, and Chitosan NPs with positive charge and with negative charge are shown. Data are shown as mean±SD (n=4).
compound,measurement,setting,value
"OC[C@H]1O[C@@](CO)(O[C@H]2O[C@H](CO)[C@@H](O)[C@H](O)[C@H]2O)[C@@H](O)[C@@H]1O [sucrose, reference compound]",effect on the average % of sickle RBC,"RBC from SCD subjects; Patient #7, over 2-4 hours hypoxia at 25 degree centigrade",no significant effect
same,effect on the sickling,"RBC from SCD subjects; Patient #7 acute crisis, hypoxia 2-4 hours at 25 degree centigrade",no significant effect
Sulfated Non-Anticoagulant Heparin [SNACH],anti-sickling (average),"RBC from SCD subjects; hypoxia 2-4 hours at 25 degree centigrade, SCD subject #5",> 90%
same,anti-sickling (average),"RBC from SCD subjects; hypoxia 2-4 hours at 25 degree centigrade, SCD subjects",> 90%
same,formation of irreversibly sickled cells,"RBC from SCD subjects; 2-24 hours incubation under 95% N2/5% CO2, high concentration",significantly decreased
same,effect on normal morphology of RBC,[1],no effect; also recorded: without any effect
Tinzaparin [standard tinzaparin],blood levels after oral administration,[2],no detectable blood levels
